Measured values from paper PMC11096480, “The road to evolution of ProTx2: how to be a subtype-specific inhibition of human Nav1.7” (Frontiers in Pharmacology, 2024).
Entries after “also recorded” stand apart in the source; their conditions may differ. Where no end group is shown, it is not given here.

Key:
KM mice [1] = assay: formalin-induced paw-licking test; assay type: in vivo
Protocol: Male KM mice (18–22 g) were obtained from Liaoning Changsheng Biotechnology Co., Ltd. The mice were acclimated for 1 week at 18°C–22°C and 50%–70% humidity, following approval by the Animal Ethics Committee of Shenyang Pharmaceutical University, China. The pain response was assessed using a formalin-induced paw-licking test. The saline solution, 5 mg/kg morphine, commonly used analgesic medications in clinical practice, or 0.75 mg/kg peptides, ProTx II, and its mutants, were injected via the tail vein to relief the pain. After half an hour, a 20-μL 5% (v/v) formalin solution was administered as an activator to induce pain in mice (n = 10) ([Miranda et al., 2007]). The cumulative pain behavior that occurred 0–5 min (phase I, an immediate nociceptive phase) and 20–60 min (phase II, a later inflammatory phase) after injection was recorded for 60 min at 5 min intervals in individual cages to measure the total licking time in phases I and II, respectively.

[2] = molecular target: human voltage-gated sodium channel Nav1.4, on CHO cells (human) (UniProt P35499)
[3] = molecular target: human voltage-gated sodium channel Nav1.7, on CHO cells (human) (UniProt Q15858)
KM mice [4] = assay: forced swimming test; assay type: in vivo
Protocol: Additionally, a forced swimming test measured endurance following 7 days of treatment with ProTx2 or its mutants ([Porsolt et al., 1977]; [Galeotti et al., 2002]; [Xu et al., 2017]). Fifty male KM mice were randomly divided into five groups with 10 mice in each group. The groups were classified as normal saline control, ProTx2, R13A, R13D, and K27Y.
Following a 7-day treatment regimen, mice received injections of ProTx2 or its mutants and underwent forced swimming tests 20 min after the final treatment.

hNav1.4 = assay: whole-cell patch clamp, CHO-Nav1.4 sodium current; assay type: cell-based, human
Protocol: (§1) Nav1.4-CHO cells and Nav1.7-CHO cells were maintained in Iscove’s modified Dulbecco’s medium (Gibco) supplemented with 10% (v/v) fetal bovine serum (FBS) and 200 μg/mL G418 (Sigma). All cells were cultured at 37 °C and 5% CO2 atmosphere. Mouse myoblasts C2C12, obtained from the Stem Cell Bank of The Chinese Academy of Sciences, were grown in Dulbecco’s modified Eagle‘s medium (DMEM) enriched with 10% heat-inactivated FBS, 2 mM L glutamine, 100 U/mL of penicillin, and 100 μg/mL of streptomycin. The C2C12 cells typically reached confluence in 3–5 days in 75-T flasks. For passaging, monolayers were treated with 0.25% trypsin for 3–5 min, rinsed twice with DMEM, and sub-cultured at a ratio of 1:4. Similarly, the Chinese hamster ovary (CHO) cells were cultured in IMDM medium supplemented with 10% fetal bovine serum, 1% penicillin/streptomycin, 100 μM hypoxanthine, and 16 μM thymidine. When 90% confluence was achieved, cells were separated by 0.25% trypsin EDTA, and patch clamp electrophysiology experiments were carried out.
(§2) Automatic electrophysiological platforms (NPC-1 and Port-a-Patch systems, […], Munich, Germany) and EPC10 amplifiers (HEKA Elektronik, Lambrecht, Germany) assessed the effects of recombinant ProTx2 and its mutants on CHO-Nav1.4 and CHO-Nav1.7. […]

C2C12 cells = assay: C2C12 cell viability (CCK8 assay); assay type: cell-based, mouse; settings: CCK8, 450 nm, 18-h exposure, 0-160 μg/mL, serum-free, n = 5; R13D effect particularly between 100 and 160 μg/mL; relative to wild-type peptide
Protocol: as §1
C2C12 cell viability in response to ProTx2 or it mutants was evaluated using the CCK8 assay ([Pan et al., 2019]; [Ge et al., 2020]). […] After 18 h of treatment, cell viability was assessed by measuring the absorbance at 450 nm, following the addition of the CCK-8 reagent.

hNav1.7 = assay: whole-cell patch clamp, CHO-Nav1.7 sodium current; assay type: cell-based, human
Protocol: as §1, §2

Chain of UniProt P35499 (P35499 whole entry): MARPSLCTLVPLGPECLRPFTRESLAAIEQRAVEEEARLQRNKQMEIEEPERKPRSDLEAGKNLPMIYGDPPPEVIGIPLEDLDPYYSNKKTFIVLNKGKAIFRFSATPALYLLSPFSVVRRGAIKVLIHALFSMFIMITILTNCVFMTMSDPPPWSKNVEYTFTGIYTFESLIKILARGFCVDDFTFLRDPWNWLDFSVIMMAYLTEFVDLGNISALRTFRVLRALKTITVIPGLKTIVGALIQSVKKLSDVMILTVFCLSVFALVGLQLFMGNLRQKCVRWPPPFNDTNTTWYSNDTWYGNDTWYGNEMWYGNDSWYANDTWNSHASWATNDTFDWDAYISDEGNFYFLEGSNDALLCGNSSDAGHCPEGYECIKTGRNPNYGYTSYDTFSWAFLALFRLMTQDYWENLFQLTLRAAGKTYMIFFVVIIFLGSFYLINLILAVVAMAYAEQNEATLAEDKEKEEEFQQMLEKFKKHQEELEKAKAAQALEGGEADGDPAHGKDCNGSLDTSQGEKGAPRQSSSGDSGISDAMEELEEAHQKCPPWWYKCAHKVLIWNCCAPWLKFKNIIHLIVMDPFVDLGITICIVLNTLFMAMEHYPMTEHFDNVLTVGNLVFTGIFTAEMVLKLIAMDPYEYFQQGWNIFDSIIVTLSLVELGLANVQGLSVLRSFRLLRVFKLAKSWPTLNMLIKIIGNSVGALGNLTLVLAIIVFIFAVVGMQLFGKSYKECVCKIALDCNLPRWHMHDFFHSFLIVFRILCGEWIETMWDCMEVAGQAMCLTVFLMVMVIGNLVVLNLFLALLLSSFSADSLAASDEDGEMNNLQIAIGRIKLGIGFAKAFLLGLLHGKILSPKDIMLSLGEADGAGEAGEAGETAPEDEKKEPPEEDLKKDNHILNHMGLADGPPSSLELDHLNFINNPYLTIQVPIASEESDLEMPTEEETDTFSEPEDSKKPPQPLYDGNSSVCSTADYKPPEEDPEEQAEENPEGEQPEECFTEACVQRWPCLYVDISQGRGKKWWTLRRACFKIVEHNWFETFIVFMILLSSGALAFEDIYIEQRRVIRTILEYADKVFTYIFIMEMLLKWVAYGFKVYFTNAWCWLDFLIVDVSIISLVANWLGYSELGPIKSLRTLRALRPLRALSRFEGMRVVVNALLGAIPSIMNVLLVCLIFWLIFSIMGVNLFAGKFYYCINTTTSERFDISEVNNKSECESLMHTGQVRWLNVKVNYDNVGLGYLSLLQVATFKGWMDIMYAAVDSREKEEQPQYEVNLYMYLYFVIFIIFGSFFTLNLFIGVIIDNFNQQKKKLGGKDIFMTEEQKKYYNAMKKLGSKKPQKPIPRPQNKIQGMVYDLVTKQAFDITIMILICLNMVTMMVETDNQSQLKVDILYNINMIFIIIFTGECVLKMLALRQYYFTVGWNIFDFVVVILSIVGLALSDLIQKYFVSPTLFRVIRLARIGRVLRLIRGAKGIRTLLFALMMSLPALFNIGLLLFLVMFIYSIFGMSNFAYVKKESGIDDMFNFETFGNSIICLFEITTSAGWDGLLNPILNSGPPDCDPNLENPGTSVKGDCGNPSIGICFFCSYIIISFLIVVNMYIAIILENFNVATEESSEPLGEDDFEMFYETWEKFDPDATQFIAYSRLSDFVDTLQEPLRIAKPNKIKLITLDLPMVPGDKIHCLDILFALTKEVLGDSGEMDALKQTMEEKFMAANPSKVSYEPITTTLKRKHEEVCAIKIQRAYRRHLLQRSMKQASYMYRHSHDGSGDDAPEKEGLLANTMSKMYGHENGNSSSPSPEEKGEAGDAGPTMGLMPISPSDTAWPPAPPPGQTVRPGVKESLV
Chain of UniProt Q15858 (Q15858 whole entry): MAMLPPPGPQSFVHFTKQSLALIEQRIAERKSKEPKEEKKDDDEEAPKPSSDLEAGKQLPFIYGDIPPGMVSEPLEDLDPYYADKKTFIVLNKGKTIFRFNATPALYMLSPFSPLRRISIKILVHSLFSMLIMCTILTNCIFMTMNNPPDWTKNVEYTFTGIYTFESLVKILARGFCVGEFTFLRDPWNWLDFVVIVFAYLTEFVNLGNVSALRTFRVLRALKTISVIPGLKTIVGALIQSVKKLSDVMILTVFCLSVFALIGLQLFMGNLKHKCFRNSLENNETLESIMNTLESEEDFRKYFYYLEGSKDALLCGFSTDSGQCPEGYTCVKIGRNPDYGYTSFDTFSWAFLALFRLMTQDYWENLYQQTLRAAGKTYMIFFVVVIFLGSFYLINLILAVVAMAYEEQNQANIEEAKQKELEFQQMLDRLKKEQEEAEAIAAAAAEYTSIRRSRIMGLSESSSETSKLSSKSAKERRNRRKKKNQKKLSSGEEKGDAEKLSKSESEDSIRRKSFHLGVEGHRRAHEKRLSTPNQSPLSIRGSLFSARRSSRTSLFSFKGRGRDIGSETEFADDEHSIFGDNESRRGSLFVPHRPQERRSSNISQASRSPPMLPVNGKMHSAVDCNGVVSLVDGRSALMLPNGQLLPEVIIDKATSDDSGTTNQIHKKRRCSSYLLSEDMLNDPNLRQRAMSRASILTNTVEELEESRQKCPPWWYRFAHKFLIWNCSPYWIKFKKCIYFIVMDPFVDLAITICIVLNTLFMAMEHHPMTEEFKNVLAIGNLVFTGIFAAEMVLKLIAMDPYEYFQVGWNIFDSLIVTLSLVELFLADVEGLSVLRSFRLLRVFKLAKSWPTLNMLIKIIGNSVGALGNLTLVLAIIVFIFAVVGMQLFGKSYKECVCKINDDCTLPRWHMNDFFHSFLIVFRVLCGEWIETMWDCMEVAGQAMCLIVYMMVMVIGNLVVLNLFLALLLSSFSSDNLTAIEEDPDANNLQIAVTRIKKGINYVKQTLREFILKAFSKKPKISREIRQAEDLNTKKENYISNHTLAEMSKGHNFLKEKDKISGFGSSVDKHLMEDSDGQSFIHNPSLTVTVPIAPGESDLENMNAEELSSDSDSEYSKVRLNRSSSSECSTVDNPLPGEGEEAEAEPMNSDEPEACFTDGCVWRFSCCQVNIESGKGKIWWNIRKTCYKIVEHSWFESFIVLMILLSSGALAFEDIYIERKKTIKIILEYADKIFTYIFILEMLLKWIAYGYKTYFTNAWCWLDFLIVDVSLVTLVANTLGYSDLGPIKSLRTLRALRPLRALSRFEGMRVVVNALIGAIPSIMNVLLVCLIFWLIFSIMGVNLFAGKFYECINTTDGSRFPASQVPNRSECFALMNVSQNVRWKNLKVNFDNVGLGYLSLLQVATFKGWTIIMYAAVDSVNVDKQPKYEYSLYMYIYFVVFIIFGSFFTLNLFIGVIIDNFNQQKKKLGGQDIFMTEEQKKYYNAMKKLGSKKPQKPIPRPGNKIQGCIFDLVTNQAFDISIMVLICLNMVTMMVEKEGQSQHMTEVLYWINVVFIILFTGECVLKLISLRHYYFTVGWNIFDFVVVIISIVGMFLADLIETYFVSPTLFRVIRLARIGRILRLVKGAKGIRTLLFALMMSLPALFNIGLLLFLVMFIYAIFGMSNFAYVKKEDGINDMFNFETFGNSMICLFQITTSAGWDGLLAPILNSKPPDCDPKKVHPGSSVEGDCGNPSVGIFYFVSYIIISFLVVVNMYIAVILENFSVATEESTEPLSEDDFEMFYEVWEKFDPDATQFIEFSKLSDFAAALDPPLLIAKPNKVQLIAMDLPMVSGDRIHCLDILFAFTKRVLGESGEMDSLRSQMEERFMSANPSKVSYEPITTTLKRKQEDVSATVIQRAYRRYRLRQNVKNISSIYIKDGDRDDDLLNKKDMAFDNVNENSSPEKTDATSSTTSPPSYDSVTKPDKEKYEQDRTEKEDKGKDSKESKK

CN1CC[C@]23c4c5ccc(O)c4O[C@H]2[C@@H](O)C=C[C@H]3[C@H]1C5 [morphine, reference compound]
total licking time, phase I (morphine) (KM mice [1]; mouse, in vivo, 5 mg/kg): 7.5 ± 1.6 s | total licking time, phase II (morphine) (KM mice [1]; mouse, in vivo, 5 mg/kg): 42.1 ± 6.1 s

ProTx2 (Protoxin-II), wild type, recombinant (from UniProt P83476 1-30) (peptide)
peak sodium current amplitude (normalized) of hNav1.4-CHO cells, whole-cell patch clamp, peptide at 1 μM [2]: 50% | peak sodium current amplitude (normalized) of hNav1.7-CHO cells, whole-cell patch clamp, peptide at 1 μM [3]: 82%

ProTx2 mutant R13D, recombinant (from UniProt P83476 1-30) (peptide)
peak sodium current amplitude (normalized) of hNav1.4-CHO cells, whole-cell patch clamp, peptide at 1 μM [2]: 59% | peak sodium current amplitude (normalized) of hNav1.7-CHO cells, whole-cell patch clamp, peptide at 1 μM [3]: 68%

R13D: single-point mutation (R13D) in ProTx2 (YCQKWMWTCDSEDKCCEGMVCRLWCKKKLW; ends and bridges not checked; cysteine pairing not given here)
swimming endurance / muscular toxicity (KM mice [4]; 7-day treatment, test 20 min after final treatment, male KM mice, n = 10, versus wild-type ProTx2): significantly prolonged endurance compared to the wild-type ProTx2 group, suggesting reduced muscular toxicity (p < 0.05) | muscle toxicity (KM mice [4]; summary in abstract, compared with ProTx2): dramatically reducing its muscle toxicity compared with ProTx2 | peak sodium current amplitude, hNav1.4 (hNav1.4; 1 μM, normalized Na+ peak current at −30 mV, CHO cells, whole-cell, holding −80 mV, 22°C, 10 cells per set): 59% | inhibition of hNav1.4 current (hNav1.4; CHO-Nav1.4, whole-cell, relative to ProTx2 for R13D): marginally diminished effect on hNav1.4 | analgesic effect (KM mice [1]; formalin model, 0.75 mg/kg peptide, tail vein, versus wild-type ProTx2, 0.75 mg/kg): maintained the analgesic effect in mice; also recorded: significantly alleviated pain in both the acute and inflammatory phases, outperforming the wild-type ProTx2 | total licking time, phase I (KM mice [1]; phase I (0–5 min), 0.75 mg/kg peptide, tail vein, half an hour before 20 μL 5% formalin, male KM mice, n = 10): 33.5 ± 1.6 s | total licking time, phase II (KM mice [1]; phase II (20–60 min), 0.75 mg/kg peptide, tail vein, half an hour before 20 μL 5% formalin, male KM mice, n = 10): 128.0 ± 5.2 s | C2C12 cellular viability (C2C12 cells): significantly improved cellular viability in a concentration-dependent manner, particularly between 100 and 160 μg/mL | peak sodium current amplitude, hNav1.7 (hNav1.7; 1 μM, normalized Na+ peak current at −30 mV, CHO cells, whole-cell, holding −80 mV, 22°C, 10 cells per set, R13D vs ProTx2 p < 0.01): 68% | inhibition of hNav1.7 current (hNav1.7; CHO-Nav1.7, whole-cell, relative to ProTx2 for R13D): pronouncedly intensified inhibition of hNav1.7
